Values quoted from earlier work in publication PMC8364686, “Safety, tolerability, pharmacokinetics and pharmacodynamics of single oral doses of BI 187004, an inhibitor of 11beta-hydroxysteroid dehydrogenase-1, in healthy male volunteers with overweight or obesity” (Clinical Diabetes and Endocrinology, 2021).
Read-outs that look alike come from different tables or passages of the source.

Legend:
11beta-HSD1 in AT = conditions: single dose, cited from earlier work
11beta-HSD1 = conditions: cited from earlier work

CC(C)[C@]1(C)SC(=N[C@H]2C[C@@H]3CC[C@H]2C3)NC1=O [AMG 221]
11beta-HSD1 inhibition in AT (11beta-HSD1 in AT; 24-h study duration): > 90%

CCCSc1nc(N2CCC[C@@H](CC(=O)O)C2)ccc1C(=O)NC1CCCCC1 [AZD4017]
Maximum decrease in urinary (aTHF + THF)/THE ratio (11beta-HSD1; highest dose of 900 mg, after 9 days): 92%

C[C@@H](c1ccc(-c2ccn(C)c(=O)c2)cc1)N1CC[C@](CC(C)(C)O)(c2ccccc2)OC1=O [BI 135585]
11beta-HSD1 inhibition in AT (11beta-HSD1 in AT; 24 h after dosing): 90%

N#Cc1ccc(-c2ccc(S(=O)(=O)Nc3cccc(N)n3)cc2)cc1 [PF-915275]
Maximum decrease in urinary (aTHF + THF)/THE ratio (11beta-HSD1; after 14 days of treatment): 26%
